According to patent US6355799B1, “Substituted benzene compounds, process for their preparation, and herbicidal and defoliant compositions containing them” (ISK Americas Incorporated, priority 1997, dated 2002):

Tests used:
Format in all cases: in vivo
[1] = system: field corn (Zea mays L., var. Dekalb 535, CORN); assay: Post-emerge test, crop safety; settings: post-emerge, 14 days after application, rating scale 0-100
In short: (§1)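 Rating: 0–100 visual injury, 14 DAA. Application: acetone, 187 l/ha, 15–1000 g ai/ha, flat-fan track sprayer with nozzle 40–45 cm above soil or canopy. Post-emerge runs used 0.25% v/v surfactant on 2–3 leaf plants.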

[2] = system: upland rice (Oryza sp., var. Tebonnet, RICE); assay: Post-emerge test, crop safety; settings: post-emerge, 14 days after application, rating scale 0-100
In short: as §1

[3] = system: common ragweed (Ambrosia artemisizfolia L., AMBEL); assay: Pre-emerge test, greenhouse herbicide activity screening; settings: rated 14 days after application, 0 = no damage, 100 = complete death
In short: (§2)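 Compounds in acetone were track-sprayed at 15–1000 g ai/ha: pre-emergence onto soil sown the previous day, then top-watered to incorporate and later bottom-watered; post-emergence onto 2–3 leaf plants with 0.25% v/v surfactant, bottom-watered only. Ratings on a 0–100 phytotoxicity scale were taken at day 14.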

[4] = system: large crabgrass (Digitaria sanguinalis, DIGSA); assay: as above; settings: rated 14 days after application, 0 = no damage, 100 = complete death
In short: as §2

[5] = system: velvetleaf (Abutilon theophrasti, ABUTH); assay: as above; settings: rated 14 days after application, 0 = no damage, 100 = complete death
In short: as §2

[6] = system: green foxtail (Setaria viridis, SETVI); assay: as above; settings: rated 14 days after application, 0 = no damage, 100 = complete death
In short: as §2

[7] = system: lambsquarters (Chenopodium album, CHEAL); assay: as above; settings: rated 14 days after application, 0 = no damage, 100 = complete death
In short: as §2

[8] = system: barnyardgrass (Echinochloa crus-galli, ECHCG); assay: as above; settings: rated 14 days after application, 0 = no damage, 100 = complete death
In short: as §2

[9] = system: johnsongrass (Sorghum halepense, SORHA); assay: as above; settings: rated 14 days after application, 0 = no damage, 100 = complete death
In short: as §2

[10] = system: ivyleaf morningglory (Ipomoea hederacea, IPOHE); assay: as above; settings: rated 14 days after application, 0 = no damage, 100 = complete death
In short: as §2

[11] = system: sicklepod (Cassia obtusifolia, CASOB); assay: as above; settings: rated 14 days after application, 0 = no damage, 100 = complete death
In short: as §2

[12] = system: common ragweed (Ambrosia artemisizfolia L., AMBEL); assay: Post-emerge test, greenhouse herbicide activity screening; settings: post-emerge, 14 days after application, rating scale 0-100
In short: (§3)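 Sandy loam pots; pre-emerge: sown 1 d pre-spray, surface-watered after, then bottom-watered. Post-emerge: sown 8–21 d before, 2–3 leaf stage, + 0.25% v/v NIS, bottom-watered. Acetone, 187 l/ha track spray, 15–1000 g ai/ha. 0–100 injury score, day 14.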

[13] = system: large crabgrass (Digitaria sanguinalis, DIGSA); assay: as above; settings: post-emerge, 14 days after application, rating scale 0-100
In short: as §3

[14] = system: velvetleaf (Abutilon theophrasti, ABUTH); assay: as above; settings: post-emerge, 14 days after application, rating scale 0-100
In short: as §3

[15] = system: green foxtail (Setaria viridis, SETVI); assay: as above; settings: post-emerge, 14 days after application, rating scale 0-100
In short: as §3

[16] = system: lambsquarters (Chenopodium album, CHEAL); assay: as above; settings: post-emerge, 14 days after application, rating scale 0-100
In short: as §3

[17] = system: redroot pigweed (Amaranthus retroflexus, AMARE); assay: as above; settings: post-emerge, 14 days after application, rating scale 0-100
In short: as §3

[18] = system: barnyardgrass (Echinochloa crus-galli, ECHCG); assay: as above; settings: post-emerge, 14 days after application, rating scale 0-100
In short: as §3

[19] = system: johnsongrass (Sorghum halepense, SORHA); assay: as above; settings: post-emerge, 14 days after application, rating scale 0-100
In short: as §3

[20] = system: ivyleaf morningglory (Ipomoea hederacea, IPOHE); assay: as above; settings: post-emerge, 14 days after application, rating scale 0-100
In short: as §3

[21] = system: sicklepod (Cassia obtusifolia, CASOB); assay: as above; settings: post-emerge, 14 days after application, rating scale 0-100
In short: as §3

[22] = system: redroot pigweed (Amaranthus retroflexus, AMARE); assay: Pre-emerge test, greenhouse herbicide activity screening; settings: rated 14 days after application, 0 = no damage, 100 = complete death
In short: as §3

[23] = system: field corn (Zea mays L., var. Dekalb 535, CORN); assay: Pre-emerge test, crop safety; settings: rated 14 days after application, 0 = no damage, 100 = complete death
In short: (§4)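 Plants grown in 10 cm pots of sandy loam mix received acetone-dissolved compounds through a moving flat-fan nozzle. Doses ranged from 15 to 1000 g ai/ha. Pre-emerge pots were seeded one day earlier, post-emerge pots 8–21 days earlier. Fourteen days on, each pot was graded 0–100 for damage.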

[24] = system: upland rice (Oryza sp., var. Tebonnet, RICE); assay: Pre-emerge test, crop safety; settings: rated 14 days after application, 0 = no damage, 100 = complete death
In short: as §4

Which “phytotoxicity rating CORN” value ([1]; 63 g ai/ha) does the source give for `COc1ccc(C(=O)Nc2c(OC)c(Cl)cc(F)c2-n2c(=O)cc(C(F)(F)F)n(C)c2=O)cc1` [2-63] here?
The value was 50.

And the “phytotoxicity rating CORN” value ([1]; 250 g ai/ha)?
The value was 95.

And the “phytotoxicity rating RICE” value ([2]; 63 g ai/ha)?
The value was 70.

And the “phytotoxicity rating RICE” value ([2]; 250 g ai/ha)?
Its value is 95.

What about the “Pre-emerge Herbicidal Activity, phytotoxicity rating (0-100), AMBEL” value ([3]; 63 g ai/ha) of the same compound?
Its value is 100.

What about the “Pre-emerge Herbicidal Activity, phytotoxicity rating (0-100), AMBEL” value ([3]; 250 g ai/ha) of the same compound?
The value was 100.

What about the “Pre-emerge Herbicidal Activity, phytotoxicity rating (0-100), DIGSA” value ([4]; 63 g ai/ha) of the same compound?
Its value is 100.

And the “Pre-emerge Herbicidal Activity, phytotoxicity rating (0-100), DIGSA” value ([4]; 250 g ai/ha)?
The value was 100.

What about the “Pre-emerge Herbicidal Activity, phytotoxicity rating (0-100), ABUTH” value ([5]; 63 g ai/ha) of the same compound?
Its value is 100.

What about the “Pre-emerge Herbicidal Activity, phytotoxicity rating (0-100), ABUTH” value ([5]; 250 g ai/ha) of the same compound?
Its value is 100.

What about the “Pre-emerge Herbicidal Activity, phytotoxicity rating (0-100), SETVI” value ([6]; 63 g ai/ha) of the same compound?
The value was 100.

What about the “Pre-emerge Herbicidal Activity, phytotoxicity rating (0-100), SETVI” value ([6]; 250 g ai/ha) of the same compound?
The value was 100.

What about the “Pre-emerge Herbicidal Activity, phytotoxicity rating (0-100), CHEAL” value ([7]; 63 g ai/ha) of the same compound?
The value was 100.

What about the “Pre-emerge Herbicidal Activity, phytotoxicity rating (0-100), CHEAL” value ([7]; 250 g ai/ha) of the same compound?
Its value is 100.

And the “Pre-emerge Herbicidal Activity, phytotoxicity rating (0-100), ECHCG” value ([8]; 63 g ai/ha)?
The value was 95.

And the “Pre-emerge Herbicidal Activity, phytotoxicity rating (0-100), ECHCG” value ([8]; 250 g ai/ha)?
The value was 100.

What about the “Pre-emerge Herbicidal Activity, phytotoxicity rating (0-100), SORHA” value ([9]; 63 g ai/ha) of the same compound?
The value was 90.

And the “Pre-emerge Herbicidal Activity, phytotoxicity rating (0-100), SORHA” value ([9]; 250 g ai/ha)?
The value was 100.

What about the “Pre-emerge Herbicidal Activity, phytotoxicity rating (0-100), IPOHE” value ([10]; 63 g ai/ha) of the same compound?
The value was 100.

What about the “Pre-emerge Herbicidal Activity, phytotoxicity rating (0-100), IPOHE” value ([10]; 250 g ai/ha) of the same compound?
Its value is 100.

What about the “Pre-emerge Herbicidal Activity, phytotoxicity rating (0-100), CASOB” value ([11]; 63 g ai/ha) of the same compound?
Its value is 100.

And the “Pre-emerge Herbicidal Activity, phytotoxicity rating (0-100), CASOB” value ([11]; 250 g ai/ha)?
The value was 100.

What about the “phytotoxicity rating AMBEL” value ([12]; 63 g ai/ha) of the same compound?
The value was 80.

And the “phytotoxicity rating AMBEL” value ([12]; 250 g ai/ha)?
Its value is 100.

And the “phytotoxicity rating DIGSA” value ([13]; 63 g ai/ha)?
The value was 0.

And the “phytotoxicity rating DIGSA” value ([13]; 250 g ai/ha)?
The value was 70.

And the “phytotoxicity rating ABUTH” value ([14]; 63 g ai/ha)?
The value was 100.

And the “phytotoxicity rating ABUTH” value ([14]; 250 g ai/ha)?
The value was 100.

What about the “phytotoxicity rating SETVI” value ([15]; 63 g ai/ha) of the same compound?
Its value is 50.

And the “phytotoxicity rating SETVI” value ([15]; 250 g ai/ha)?
The value was 95.

What about the “phytotoxicity rating CHEAL” value ([16]; 63 g ai/ha) of the same compound?
The value was 99.

And the “phytotoxicity rating CHEAL” value ([16]; 250 g ai/ha)?
The value was 100.

And the “phytotoxicity rating AMARE” value ([17]; 63 g ai/ha)?
Its value is 100.

And the “phytotoxicity rating AMARE” value ([17]; 250 g ai/ha)?
The value was 100.

What about the “phytotoxicity rating ECHCG” value ([18]; 63 g ai/ha) of the same compound?
Its value is 10.

What about the “phytotoxicity rating ECHCG” value ([18]; 250 g ai/ha) of the same compound?
Its value is 100.

And the “phytotoxicity rating SORHA” value ([19]; 63 g ai/ha)?
Its value is 20.

And the “phytotoxicity rating SORHA” value ([19]; 250 g ai/ha)?
Its value is 100.

And the “phytotoxicity rating IPOHE” value ([20]; 63 g ai/ha)?
Its value is 100.

And the “phytotoxicity rating IPOHE” value ([20]; 250 g ai/ha)?
The value was 100.

And the “phytotoxicity rating CASOB” value ([21]; 63 g ai/ha)?
Its value is 100.

What about the “phytotoxicity rating CASOB” value ([21]; 250 g ai/ha) of the same compound?
Its value is 100.

What about the “Pre-emerge Herbicidal Activity, phytotoxicity rating (0-100), AMARE” value ([22]; 63 g ai/ha) of the same compound?
Its value is 100.

What about the “Pre-emerge Herbicidal Activity, phytotoxicity rating (0-100), AMARE” value ([22]; 250 g ai/ha) of the same compound?
Its value is 100.

What about the “Pre-emerge phytotoxicity rating (0-100), crop damage, CORN” value ([23]; 63 g ai/ha) of the same compound?
Its value is 60.

And the “Pre-emerge phytotoxicity rating (0-100), crop damage, CORN” value ([23]; 250 g ai/ha)?
The value was 100.

What about the “Pre-emerge phytotoxicity rating (0-100), crop damage, RICE” value ([24]; 63 g ai/ha) of the same compound?
Its value is 95.

And the “Pre-emerge phytotoxicity rating (0-100), crop damage, RICE” value ([24]; 250 g ai/ha)?
Its value is 100.
